# From patent publication US8304557B2, “Fused heterocycle derivatives and use thereof” (Takeda Pharmaceutical Company Limited, priority 2007, dated 2012)
# Legend:
# [1] = test system: human colon cancer cell HT-29; assay: Colon cancer cell HT-29 growth suppressive action in vitro (SRB); assay type: cell-based; conditions: 72 h, HT-29 cells, cultured for 3 days with compound, SRB staining, read-out: IC50 (nM), HT-29 growth suppression
# Description: A cell suspension (100 μL, 3,000 cells/well) of human colon cancer cell HT-29 (purchased from ATCC) was plated in a 96-well plate, and the cells were cultured at 37° C. in a 5% carbon dioxide gas incubator. The next day, 2-fold serial dilution of each test compound solution (diluted from maximum concentration 20 μM) (100 μL) was added, and the cells were cultured for 3 days. The culture medium containing the test compound was removed, and the cells were washed with phosphate buffer (PBS). A 50% trichloroacetic acid solution was added to the final concentration of 10% (v/v), and the mixture was stood overnight at 4° C., whereby the cells were fixed to the plate. Then, a dye SRB 0.4% (W/V) solution (dissolved in 1% acetic acid) was added at 50 μl/well, whereby the cell protein was fixed and stained (Skehan et al., Journal Of National Cancer Institute, vol. 82, pp. 1107-1112, 1990). The cells were washed 3 times with 1% acetic acid solution (200 μL/well), and 100 μL of an extract (10 mM Tris buffer) was added to extract the dye. The absorbance at an absorption wavelength […] was measured, and cell amount was measured as a protein amount.
# [2] = test system: phosphorylated MEK1/2 in human colon cancer cell HT-29; assay: Colon cancer cell HT-29 intracellular MEK phosphorylation inhibitory action in vitro (Western blot); assay type: cell-based; conditions: HT-29 cells, 2 hr treatment, anti-phosphorylated MEK1/2 (Ser217/221), read-out: IC50 (nM), MEK phosphorylation inhibition
# Description: A cell suspension (500 μL) of human colon cancer cell HT-29 was plated in a 48-well plate (100,000 cells/well), and the cells were cultured overnight at 37° C. in the presence of 5% CO2, treated with a test compound (250 μL/well) diluted in 3-fold dilution series and cultured for two more hours. After 2 hr, the culture medium containing the test compound was removed, and the cells were lysed with SDS sample buffer (100 μL/well) and heated at 95° C. for 5 min. Thereafter, the cells were applied to SDS-PAGE, and the protein was transferred onto Sequi-Blot™ PVDF Membrane (Bio-Rad, Richmond, Calif.) by the Western blot method. The cells were blocked with a block-Ace solution (Snow Brand Milk Products Co., Ltd) dissolved in phosphate buffer to 5% W/V, and reacted overnight with anti-phosphorylated MEK1/2 (Ser217/221) (Cell signaling #9121) diluted 1000-fold with phosphate buffer containing 0.4% block-Ace. […] The membrane was washed in the same manner as above, chemical luminescence of a phosphorylated MEK1/2 protein labeled with the antibody, which was caused by ECL-plus Detection Reagent (Amersham bioscience), was detected by Luminescent Image Analyzer LAS-1000 (FUJIFILM Corporation).
SMILES,IC50 [1] [nM],IC50 [2] [nM]
"CC(C)(C#N)c1cccc(C(=O)Nc2cccc(Oc3ccc4nc(NC(=O)C5CC5)cn4c3)c2)c1 [Example 228, 3-(1-cyano-1-methylethyl)-N-[3-({2-[(cyclopropylcarbonyl)amino]imidazo[1,2-a]pyridin-6-yl}oxy)phenyl]benzamide]",< 500,< 500
"Cc1ccc(NC(=O)c2cccc(C(C)(C)C#N)c2)cc1Oc1ccc2nc(NC(=O)C3CC3)nn2c1 [Example 233, 3-(1-cyano-1-methylethyl)-N-[3-({2-[(cyclopropylcarbonyl)amino][1,2,4]triazolo[1,5-a]pyridin-6-yl}oxy)-4-methylphenyl]benzamide]",< 500,–
"N#CC1(c2cccc(C(=O)Nc3cccc(Oc4ccc5nc(NC(=O)C6CC6)nn5c4)c3)c2)CC1 [Example 232, 3-(1-cyanocyclopropyl)-N-[3-({2-[(cyclopropylcarbonyl)amino][1,2,4]triazolo[1,5-a]pyridin-6-yl}oxy)phenyl]benzamide]",–,< 500
